Data reported in patent US9102701B2, “17-hydroxy-17-pentafluoroethyl-estra-4,9(10)-diene-11-ethynylphenyl derivatives, methods for the production thereof and use thereof for treating diseases” (Bayer Intellectual Property GmbH, priority 2009, dated 2015).
Where two headings read alike, the source gives them in different places.

How the values were obtained:
[1] = target: T1, human progesterone receptor A (Homo sapiens, UniProt P06401); experiment: Progesterone receptor-antagonistic action in stably transfected SK-N-MC cells, PR-A, MMTV-LUC reporter; type: cell-based; settings: read-out: IC50 PR-A
T1 construct: expressed in transfected cells; host or cells: SK-N-MC human neuroblastoma cells, stably transfected with pRChPR-A-neo and pMMTV-LUC
T1 sequence (P06401 1-769 isoform P06401-2): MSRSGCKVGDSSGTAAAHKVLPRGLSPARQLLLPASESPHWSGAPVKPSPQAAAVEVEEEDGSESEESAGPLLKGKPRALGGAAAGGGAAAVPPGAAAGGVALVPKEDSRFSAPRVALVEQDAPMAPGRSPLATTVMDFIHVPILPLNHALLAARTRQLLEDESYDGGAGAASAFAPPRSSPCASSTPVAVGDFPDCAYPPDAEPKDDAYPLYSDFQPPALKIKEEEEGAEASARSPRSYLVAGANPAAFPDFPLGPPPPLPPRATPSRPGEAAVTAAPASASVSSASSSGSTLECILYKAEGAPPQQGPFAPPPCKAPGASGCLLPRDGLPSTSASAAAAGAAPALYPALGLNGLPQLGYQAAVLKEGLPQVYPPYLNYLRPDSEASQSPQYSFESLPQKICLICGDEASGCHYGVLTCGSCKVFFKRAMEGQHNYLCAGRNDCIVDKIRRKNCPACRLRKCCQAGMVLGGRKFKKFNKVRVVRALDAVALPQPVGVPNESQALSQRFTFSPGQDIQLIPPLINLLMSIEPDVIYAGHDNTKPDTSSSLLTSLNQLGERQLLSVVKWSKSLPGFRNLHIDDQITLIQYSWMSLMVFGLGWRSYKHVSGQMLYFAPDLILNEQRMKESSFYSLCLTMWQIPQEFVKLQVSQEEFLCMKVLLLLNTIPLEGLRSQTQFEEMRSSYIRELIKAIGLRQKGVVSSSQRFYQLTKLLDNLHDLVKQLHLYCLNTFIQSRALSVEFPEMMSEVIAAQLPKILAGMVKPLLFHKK
Description: (§1) Determination of Progesterone Receptor-Antagonistic Action in Stable Transfectants of Human Neuroblastoma Cells (SK-N-MC Cells) with the Human Progesterone a or Progesterone B Receptor and an MN-LUC Reporter Construct
(§2) SK-N-MC cells (human neuroblastoma cells) which have been stably transfected with plasmids expressing the human progesterone receptor B (pRChPR-B-neo) or the human progesterone receptor A (pRChPR-A-neo) and a reporter construct (pMMTV-LUC) were incubated for 24 hours either in the absence (negative control) or in the presence of ascending amounts of the particular test compound (0.01 nmol/l, 0.1 nmol/l, 1 nmol/l, 10 nmol/l, 100 nmol/l and […]), in order to determine the agonistic efficacy. As a positive control of the reporter gene induction, the cells were treated with the synthetic gestagen promegestone (0.01 nmol/l, 0.1 nmol/l, 1 nmol/l, 10 nmol/l, 100 nmol/l and […]). To determine the antagonistic activity, the cells were treated with 0.1 nmol/l promegestone and additionally with ascending amounts of the particular test compound (0.01 nmol/l, 0.1 nmol/l, 1 nmol/l, 10 nmol/l, 100 nmol/l and […]). The activity of the reporter gene LUC (LUC=luciferase) was determined in the cell lysates and measured as RLU (relative light units). All measurements are reported as % efficacy and as EC50 and IC50 concentrations.

[2] = target: T2, human progesterone receptor B (Homo sapiens, UniProt P06401); experiment: Progesterone receptor-antagonistic action in stably transfected SK-N-MC cells, PR-B, MMTV-LUC reporter; type: cell-based; settings: read-out: IC50 PR-B
T2 construct: expressed in transfected cells; host or cells: SK-N-MC human neuroblastoma cells, stably transfected with pRChPR-B-neo and pMMTV-LUC
T2 sequence (P06401 1-933): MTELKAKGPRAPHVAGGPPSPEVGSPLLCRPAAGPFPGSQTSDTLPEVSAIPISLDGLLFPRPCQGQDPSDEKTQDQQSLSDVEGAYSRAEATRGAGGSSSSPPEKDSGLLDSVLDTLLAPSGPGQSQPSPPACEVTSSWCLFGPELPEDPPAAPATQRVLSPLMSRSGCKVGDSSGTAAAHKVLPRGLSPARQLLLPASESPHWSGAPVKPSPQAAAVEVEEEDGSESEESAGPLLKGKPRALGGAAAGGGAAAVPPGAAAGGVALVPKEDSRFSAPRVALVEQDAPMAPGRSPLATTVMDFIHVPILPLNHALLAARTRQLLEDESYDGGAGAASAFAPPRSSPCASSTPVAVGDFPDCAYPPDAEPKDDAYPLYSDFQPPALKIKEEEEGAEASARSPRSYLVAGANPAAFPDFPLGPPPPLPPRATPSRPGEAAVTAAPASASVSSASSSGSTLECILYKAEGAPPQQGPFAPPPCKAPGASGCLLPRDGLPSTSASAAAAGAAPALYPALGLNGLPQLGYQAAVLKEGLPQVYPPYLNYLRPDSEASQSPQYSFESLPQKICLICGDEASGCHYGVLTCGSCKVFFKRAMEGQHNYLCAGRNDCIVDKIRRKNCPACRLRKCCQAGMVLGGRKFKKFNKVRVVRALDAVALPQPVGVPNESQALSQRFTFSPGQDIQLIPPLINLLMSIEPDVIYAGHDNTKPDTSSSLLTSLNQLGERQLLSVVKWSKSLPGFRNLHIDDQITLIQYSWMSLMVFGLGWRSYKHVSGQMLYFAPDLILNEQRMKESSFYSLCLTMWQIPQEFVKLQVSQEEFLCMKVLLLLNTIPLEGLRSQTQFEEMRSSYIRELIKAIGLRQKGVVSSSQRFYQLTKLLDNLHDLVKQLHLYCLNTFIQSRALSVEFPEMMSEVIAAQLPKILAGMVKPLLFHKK
Description: as §1, §2

Structure (SMILES)	IC50 [1] [nM]	IC50 [2] [nM]	IC50 ([1]; antagonistic potency vs 0.1 nmol/l promegestone, SK-N-MC cells, 24 hours) [nM]
COc1ccc(NC(=O)NCC#Cc2ccc([C@H]3C[C@@]4(C)[C@@H](CC[C@@]4(O)C(F)(F)C(F)(F)F)[C@@H]4CCC5=CC(=O)CCC5=C43)cc2)cc1 [Example 32, 1-{3-[4-((8S,11R,13S,14S,17S)-17-hydroxy-13-methyl-3-oxo-17-pentafluoroethyl-2,3,6,7,8,11,12,13,14,15,16,17-dodecahydro-1H-cyclopenta[a]phenanthren-11-yl)phenyl]prop-2-ynyl}-3-(4-methoxyphenyl)urea]	0.2	0.1	
C[C@]12C[C@H](c3ccc(C#Cc4cccc(S(C)(=O)=O)c4)cc3)C3=C4CCC(=O)C=C4CC[C@H]3[C@@H]1CC[C@@]2(O)C(F)(F)C(F)(F)F [Example 51, (8S,11R,13S,14S,17S)-17-hydroxy-11-[4-(3-methanesulphonylphenylethynyl)phenyl]-13-methyl-17-pentafluoroethyl-1,2,6,7,8,11,12,13,14,15,16,17-dodecahydrocyclopenta[a]phenanthren-3-one]	0.08	0.1	
C[C@]12C[C@H](c3ccc(C#CCOC(=O)Nc4ccc(N5CCCCC5)cc4)cc3)C3=C4CCC(=O)C=C4CCC3C1CC[C@@]2(O)C(F)(F)C(F)(F)F (stereo partly drawn) [Example 54, (4-piperidin-1-ylphenyl)carbamic acid 3-[4-((8S,11R,13S,14S,17S)-17-hydroxy-13-methyl-3-oxo-17-pentafluoroethyl-2,3,6,7,8,11,12,13,14,15,16,17-dodecahydro-1H-cyclopenta[a]phenanthren-1′-yl)phenyl]prop-2-ynyl ester]	0.1	0.09	
C[C@]12C[C@H](c3ccc(C#CCNC(=O)Nc4ccc(N5CCCCC5)cc4)cc3)C3=C4CCC(=O)C=C4CC[C@H]3[C@@H]1CC[C@@]2(O)C(F)(F)C(F)(F)F [Example 43, 1-{3-[4-((8S,11R,13S,14S,17S)-17-hydroxy-13-methyl-3-oxo-17-pentafluoroethyl-2,3,6,7,8,11,12,13,14,15,16,17-dodecahydro-1H-cyclopenta[a]phenanthren-11-yl)phenyl]prop-2-ynyl}-3-(4-piperidin-1-ylphenyl)urea]	0.8	0.9	
COC(=O)c1cccc(C=CC#Cc2ccc([C@H]3C[C@@]4(C)C(CC[C@@]4(O)C(F)(F)C(F)(F)F)C4CCC5=CC(=O)CCC5=C43)cc2)c1 (mixture of isomers) [Example 12, 3-{(E/Z)-4-[4-((8S,11R,13S,14S,17S)-17-hydroxy-13-methyl-3-oxo-17-pentafluoroethyl-2,3,6,7,8,11,12,13,14,15,16,17-dodecahydro-1H-cyclopenta[a]phenanthren-1′-yl)phenyl]but-1-en-3-ynyl}benzoic acid methyl ester]	1	2	
CCOC(=O)/C=C/C#Cc1ccc([C@H]2C[C@@]3(C)C(CC[C@@]3(O)C(F)(F)C(F)(F)F)C3CCC4=CC(=O)CCC4=C32)cc1 (stereo partly drawn) [Example 6, (E)-5-[4-((8S,11R,13S,14S,17S)-17-hydroxy-13-methyl-3-oxo-17-pentafluoroethyl-2,3,6,7,8,11,12,13,14,15,16,17-dodecahydro-1H-cyclopenta[a]phenanthren-1′-yl)phenyl]pent-2-en-4-ynoic acid ethyl ester]	13	12	
COC(=O)COCC#Cc1ccc([C@H]2C[C@@]3(C)[C@@H](CC[C@@]3(O)C(F)(F)C(F)(F)F)[C@@H]3CCC4=CC(=O)CCC4=C32)cc1 [Example 9, {3-[4-((8S,11R,13S,14S,17S)-17-hydroxy-13-methyl-3-oxo-17-pentafluoroethyl-2,3,6,7,8,11,12,13,14,15,16,17-dodecahydro-1H-cyclopenta[a]phenanthren-11-yl)phenyl]prop-2-ynyloxy}acetic acid methyl ester]	8.1	10	
CC(C)NC(=O)OCC#Cc1ccc([C@H]2C[C@@]3(C)C(CC[C@@]3(O)C(F)(F)C(F)(F)F)C3CCC4=CC(=O)CCC4=C32)cc1 (stereo partly drawn) [Example 49, isopropylcarbamic acid 3-[4-((8S,11R,13S,14S,17S)-17-hydroxy-13-methyl-3-oxo-17-pentafluoroethyl-2,3,6,7,8,11,12,13,14,15,16,17-dodecahydro-1H-cyclopenta[a]phenanthren-1′-yl)phenyl]prop-2-ynyl ester]	0.01	0.07	
C[C@]12C[C@H](c3ccc(C#Cc4ccc(S(C)(=O)=O)cc4)cc3)C3=C4CCC(=O)C=C4CC[C@H]3[C@@H]1CC[C@@]2(O)C(F)(F)C(F)(F)F [Example 56, (8S,11R,13S,14S,17S)-17-hydroxy-11-[4-(4-methanesulphonylphenylethynyl)phenyl]-13-methyl-17-pentafluoroethyl-1,2,6,7,8,11,12,13,14,15,16,17-dodecahydrocyclopenta[a]phenanthren-3-one]		0.08	0.01
C[C@]12C[C@H](c3ccc(C#CCNC(=O)NCc4ccccc4)cc3)C3=C4CCC(=O)C=C4CCC3C1CC[C@@]2(O)C(F)(F)C(F)(F)F (stereo partly drawn) [Example 39, 1-benzyl-3-{3-[4-((8S,11R,13S,14S,17S)-17-hydroxy-13-methyl-3-oxo-17-pentafluoroethyl-2,3,6,7,8,11,12,13,14,15,16,17-dodecahydro-1H-cyclopenta[a]phenanthren-1′-yl)phenyl]prop-2-ynyl}urea]	0.1	0.1	
C[C@]12C[C@H](c3ccc(C#CCN=[N+]=[N-])cc3)C3=C4CCC(=O)C=C4CC[C@H]3[C@@H]1CC[C@@]2(O)C(F)(F)C(F)(F)F [Example 23, (8S,11R,13S,14S,17S)-11-[4-(3-azidoprop-1-yn-1-yl)phenyl]-17-hydroxy-13-methyl-17-pentafluoroethyl-1,2,6,7,8,11,12,13,14,15,16,17-dodecahydrocyclopenta[a]phenanthren-3-one]	0.2	0.3	
CCOC(=O)CNC(=O)NCC#Cc1ccc([C@H]2C[C@@]3(C)C(CC[C@@]3(O)C(F)(F)C(F)(F)F)C3CCC4=CC(=O)CCC4=C32)cc1 (stereo partly drawn) [Example 42, (3-{3-[4-((8S,11R,13S,14S,17S)-17-hydroxy-13-methyl-3-oxo-17-pentafluoroethyl-2,3,6,7,8,11,12,13,14,15,16,17-dodecahydro-1H-cyclopenta[a]phenanthren-1′-yl)phenyl]prop-2-ynyl}ureido)acetic acid ethyl ester]	0.7	0.8	
